In patent US8759318B2, “Phosphoramidate derivatives of guanosine nucleoside compounds for treatment of viral infections” (Inhibitex, Inc., priority 2009, dated 2014) one finds IC50 and CC50 data, which are given here for 24 compounds.

As usually defined, the IC50 is the concentration that inhibits the measured activity by half.

The test system of data set [1] is HCV replicon (Genotype 1b). Description: Luciferase genotype 1b replicon potency assay. The note with it: Hepatitis C virus, GETYPE1B, read-out: IC50 μM, HCV genotype 1b luciferase replicon, Renilla luciferase reporter.
Another data set is described as follows: in vitro. The settings on record: human.

A value given as a limit tells only on which side of the number the result lay.

As for `COC(=O)[C@@H](NP(=O)(OC[C@H]1OC(n2cnc3c(OC)nc(N)nc32)[C@](C)(O)[C@@H]1O)Oc1cccc2ccccc12)c1ccccc1` (some centres unmarked) [Example 64], the IC50 in data set [1] amounted to 0.49 µM. The same compound showed a CC50 in the data set “in vitro” of more than 100000 nM.
As for `COc1nc(N)nc2c1ncn2C1O[C@H](COP(=O)(N[C@H](C(=O)OCc2ccc(F)cc2F)C(C)C)Oc2ccc3ncccc3c2)[C@@H](O)[C@@]1(C)O` (stereo partly drawn) [Example 51, (2S)-2,4-difluorobenzyl 2-((((2R,3R,4R)-5-(2-amino-6-methoxy-9H-purin-9-yl)-3,4-dihydroxy-4-methyltetrahydrofuran-2-yl)methoxy)(quinolin-6-yloxy)phosphorylamino)-3-methylbutanoate], the IC50 in data set [1] was determined as 0.11 µM. This compound had a CC50 in “in vitro” of more than 100000 nM.
With `COc1nc(N)nc2c1ncn2C1O[C@H](COP(=O)(N[C@@H](C)C(=O)OC(C)C)Oc2cccc3ccccc23)[C@@H](O)[C@@]1(C)O` (stereo partly drawn) [Example 23, (2S)-isopropyl 2-((((2R,3R,4R)-5-(2-amino-6-methoxy-9H-purin-9-yl)-3,4-dihydroxy-4-methyltetrahydrofuran-2-yl)methoxy)(naphthalen-1-yloxy)phosphorylamino)propanoate], the IC50 in data set [1] came out at 0.43 µM. The same compound yielded a CC50 in “in vitro” of 100000 nM.
The corresponding values for `COc1nc(N)nc2c1ncn2C1O[C@H](COP(=O)(N[C@H](C(=O)OCC(C)(C)C)c2ccccc2)Oc2cccc3ccccc23)[C@@H](O)[C@@]1(C)O` (some centres unmarked) [Example 66] are 0.032 µM and 19000 nM.
On to `COc1nc(N)nc2c1ncn2C1O[C@H](COP(=O)(N[C@H](C(=O)OC2CCCCC2)C(C)C)Oc2cccc3ccccc23)[C@@H](O)[C@@]1(C)O` (some centres unmarked) [Example 46], for which the IC50 in data set [1] was found to be 0.42 µM. The same compound had a CC50 in the data set “in vitro” of 24000 nM.
On the same counts, the results for `COc1nc(N)nc2c1ncn2C1O[C@H](COP(=O)(N[C@H](C(=O)OCC(C)(C)C)C(C)C)Oc2ccc3ncccc3c2)[C@@H](O)[C@@]1(C)O` (stereo partly drawn) [Example 52, (2S)-neopentyl 2-((((2R,3R,4R)-5-(2-amino-6-methoxy-9H-purin-9-yl)-3,4-dihydroxy-4-methyltetrahydrofuran-2-yl)methoxy)(quinolin-6-yloxy)phosphorylamino)-3-methylbutanoate] are 0.19 µM and more than 100000 nM.
Consider `COc1nc(N)nc2c1ncn2C1O[C@H](COP(=O)(N[C@H](C(=O)OCc2ccc(F)cc2F)C(C)C)Oc2cccc3ccccc23)[C@@H](O)[C@@]1(C)O` (some centres unmarked) [Example 37], for which, in data set [1], the IC50 was 0.043 µM. In the data set “in vitro”, the CC50 turned out to be 16000 nM.
In the case of `COc1nc(N)nc2c1ncn2C1O[C@H](COP(=O)(N[C@H](C(=O)OCC(C)(C)C)C(C)C)Oc2cc(C(C)(C)C)cc3ccccc23)[C@@H](O)[C@@]1(C)O` (some centres unmarked) [Example 55], in data set [1], the IC50 worked out at 2.1 µM. Further, in “in vitro”, the CC50 is 13000 nM.
On to `COc1nc(N)nc2c1ncn2C1O[C@H](COP(=O)(N[C@@H](C)C(=O)OCc2ccc(F)cc2F)Oc2cccc3ncccc23)[C@@H](O)[C@@]1(C)O` (stereo partly drawn) [Example 30, (2S)-2,4-difluorobenzyl 2-((((2R,3R,4R)-5-(2-amino-6-methoxy-9H-purin-9-yl)-3,4-dihydroxy-4-methyltetrahydrofuran-2-yl)methoxy)(quinolin-5-yloxy)phosphorylamino)propanoate], for which the IC50 in data set [1] is 0.13 µM. The CC50 in the data set “in vitro” is 110000 nM.
For `CCOc1nc(N)nc2c1ncn2C1O[C@H](COP(=O)(N[C@H](C(=O)OCC(C)(C)C)C(C)C)Oc2cccc3ccccc23)[C@@H](O)[C@@]1(C)O` (stereo partly drawn) [Example 79, (2S)-neopentyl 2-((((2R,3R,4R)-5-(2-amino-6-ethoxy-9H-purin-9-yl)-3,4-dihydroxy-4-methyltetrahydrofuran-2-yl)methoxy)(naphthalen-1-yloxy)phosphorylamino)-3-methylbutanoate], the IC50 in data set [1] came out at 0.22 µM. Further, the CC50 in “in vitro” is 24000 nM.
With `COc1nc(N)nc2c1ncn2C1O[C@H](COP(=O)(N[C@@H](C)C(=O)OCCC(C)(C)C)Oc2cccc3ccccc23)[C@@H](O)[C@@]1(C)O` (stereo partly drawn) [Example 18, (2S)-3,3-dimethylbutyl 2-((((2R,3R,4R)-5-(2-amino-6-methoxy-9H-purin-9-yl)-3,4-dihydroxy-4-methyltetrahydrofuran-2-yl)methoxy)(naphthalen-1-yloxy)phosphorylamino)propanoate], in data set [1], the IC50 was found to be 0.013 µM. The compound further registered a CC50 in the data set “in vitro” of 7600 nM.
As to `C[C@H](NP(=O)(OC[C@H]1OC(n2cnc3c(NCCc4ccccc4)nc(N)nc32)[C@](C)(O)[C@@H]1O)Oc1cccc2ccccc12)C(=O)OCC(C)(C)C` (stereo partly drawn) [Example 87, (2S)-neopentyl 2-((((2R,3R,4R)-5-(2-amino-6-(phenethylamino)-9H-purin-9-yl)-3,4-dihydroxy-4-methyltetrahydrofuran-2-yl)methoxy)(naphthalen-1-yloxy)phosphorylamino)propanoate], in data set [1], the IC50 amounted to 0.27 µM. The compound also displayed a CC50 in the data set “in vitro” of 42000 nM.
Consider `COc1nc(N)nc2c1ncn2C1O[C@H](COP(=O)(N[C@@H](C)C(=O)OC2CCOCC2)Oc2cccc3ccccc23)[C@@H](O)[C@@]1(C)O` (stereo partly drawn) [Example 26, (2S)-tetrahydro-2H-pyran-4-yl 2-((((2R,3R,4R)-5-(2-amino-6-methoxy-9H-purin-9-yl)-3,4-dihydroxy-4-methyltetrahydrofuran-2-yl)methoxy)(naphthalen-1-yloxy)phosphorylamino)propanoate], for which the IC50 in data set [1] was found to be 0.08 µM. For the same compound, the CC50 in the data set “in vitro” is 130000 nM.
For the compound `COc1nc(N)nc2c1ncn2C1O[C@H](COP(=O)(N[C@@H](C)C(=O)OC2CCOCC2)Oc2ccc3ncccc3c2)[C@@H](O)[C@@]1(C)O` (stereo partly drawn) [Example 34, (2S)-tetrahydro-2H-pyran-4-yl 2-((((2R,3R,4R)-5-(2-amino-6-methoxy-9H-purin-9-yl)-3,4-dihydroxy-4-methyltetrahydrofuran-2-yl)methoxy)(quinolin-6-yloxy)phosphorylamino)propanoate], in data set [1], the IC50 turned out to be 1.1 µM. In addition, the CC50 in the data set “in vitro” is more than 100000 nM.
`COc1nc(N)nc2c1ncn2C1O[C@H](COP(=O)(N[C@H](C(=O)O[C@@H](C)c2ccccc2Br)C(C)C)Oc2cccc3ccccc23)[C@@H](O)[C@@]1(C)O` (stereo partly drawn) [Example 40, (2S)-((S)-1-(2-bromophenyl)ethyl) 2-((((2R,3R,4R)-5-(2-amino-6-methoxy-9H-purin-9-yl)-3,4-dihydroxy-4-methyltetrahydrofuran-2-yl)methoxy)(naphthalen-1-yloxy)phosphorylamino)-3-methylbutanoate]: the half-maximal inhibitory concentration (IC50) in data set [1] came out at 2.9 µM. Further, the CC50 in “in vitro” came to 44000 nM.
Take `COc1nc(N)nc2c1ncn2C1O[C@H](COP(=O)(N[C@H](C)C(=O)OCC(C)(C)C)Oc2cccc3ccccc23)[C@@H](O)[C@@]1(C)O` (some centres unmarked) [Example 57]: the IC50 in data set [1] turned out to be 0.24 µM. Moreover, in “in vitro”, the CC50 was determined as 51000 nM.
Turning to `COC(=O)[C@@H](NP(=O)(OC[C@H]1OC(n2cnc3c(OC)nc(N)nc32)[C@](C)(O)[C@@H]1O)Oc1cccc2ccccc12)C(C)C` (stereo partly drawn) [Example 41, (2S)-methyl 2-((((2R,3R,4R)-5-(2-amino-6-methoxy-9H-purin-9-yl)-3,4-dihydroxy-4-methyltetrahydrofuran-2-yl)methoxy)(naphthalen-1-yloxy)phosphorylamino)-3-methylbutanoate], the IC50 in data set [1] stood at 0.38 µM. Further, the CC50 in the data set “in vitro” came out at 22000 nM.
`COc1nc(N)nc2c1ncn2C1O[C@H](COP(=O)(N[C@H](C(=O)OC2CCCCC2)c2ccccc2)Oc2cccc3ccccc23)[C@@H](O)[C@@]1(C)O` (stereo partly drawn) [Example 67, (2S)-cyclohexyl 2-((((2R,3R,4R)-5-(2-amino-6-methoxy-9H-purin-9-yl)-3,4-dihydroxy-4-methyltetrahydrofuran-2-yl)methoxy)(naphthalen-1-yloxy)phosphorylamino)-2-phenylacetate]: in data set [1], the IC50 came to 0.054 µM. In “in vitro”, this compound yielded a CC50 of 22000 nM.
With `CNc1nc(N)nc2c1ncn2[C@@H]1O[C@H](COP(=O)(N[C@@H](C)C(=O)OCC(C)(C)C)Oc2ccc3ncccc3c2)[C@@H](O)[C@@]1(C)O` (stereo partly drawn) [Example 83, (2S)-neopentyl 2-((((2R,3R,4R,5R)-5-(2-amino-6-(methylamino)-9H-purin-9-yl)-3,4-dihydroxy-4-methyltetrahydrofuran-2-yl)methoxy)(quinolin-6-yloxy)phosphorylamino)propanoate], in data set [1], the IC50 is 0.36 µM. The same compound displayed a CC50 in the data set “in vitro” of more than 100000 nM.
As for `COc1nc(NCc2ccc(F)cc2)nc2c1ncn2[C@@H]1O[C@H](COP(=O)(N[C@@H](C)C(=O)OCC(C)(C)C)Oc2cccc3ccccc23)[C@@H](O)[C@@]1(C)O` (stereo partly drawn) [Example 93, (2S)-neopentyl 2-((((2R,3R,4R,5R)-5-(2-(4-fluorobenzylamino)-6-methoxy-9H-purin-9-yl)-3,4-dihydroxy-4-methyltetrahydrofuran-2-yl)methoxy)(naphthalen-1-yloxy)phosphorylamino)propanoate], the IC50 in data set [1] amounted to 7.2 µM. Besides, the CC50 in the data set “in vitro” came to 17000 nM.
`C[C@@]1(O)[C@H](O)[C@@H](CO)O[C@H]1n1cnc2c(NCCc3ccccc3)nc(N)nc21` [Example 86, (3R,4R,5R)-2-(2-amino-6-(phenethylamino)-9H-purin-9-yl)-5-(hydroxymethyl)-3-methyltetrahydrofuran-3,4-diol]: the IC50 in data set [1] amounted to 23.6 µM.
`COc1nc(N)nc2c1ncn2C1O[C@H](COP(=O)(N[C@@H](CCSC)C(=O)OCc2ccccc2)Oc2cccc3ccccc23)[C@@H](O)[C@@]1(C)O` (stereo partly drawn) [Example 58, (2S)-benzyl 2-((((2R,3R,4R)-5-(2-amino-6-methoxy-9H-purin-9-yl)-3,4-dihydroxy-4-methyltetrahydrofuran-2-yl)methoxy)(naphthalen-1-yloxy)phosphorylamino)-4-(methylthio)butanoate]: the IC50 in data set [1] amounted to 0.22 µM.
`COc1nc(N)nc2c1ncn2C1O[C@H](COP(=O)(N[C@@H](C(=O)OCc2ccccc2)c2ccccc2)Oc2cccc3ccccc23)[C@@H](O)[C@@]1(C)O` (some centres unmarked) [compound 68] displayed a CC50 in “in vitro” of 50000 nM.
In the case of `CCCOC(=O)[C@@H](NP(=O)(OC[C@H]1OC(n2cnc3c(OC)nc(N)nc32)[C@](C)(O)[C@@H]1O)Oc1cccc2ccccc12)c1ccccc1` (some centres unmarked) [Example 65], the IC50 in data set [1] came to 0.086 µM.
